Numbered stars: 1 amine (or outer) side, 2 acyl side, 3 side chain; on linkers, the order of the positions; unused ones are H or OH. Square brackets hold non-standard residues; d marks the D form. Side chains are listed from the residue outwards. Peptide text beside a SMILES is read from it. * marks the point of attachment. C20 diacid = O=C(O)CCCCCCCCCCCCCCCCCCC(=O)*; γGlu = O=C(O)[C@H](CCC(=O)[*:2])N[*:1]; AEEA = NCCOCCOCC(=O)O; Aib = CC(C)(N)C(=O)O

Here are results for three compounds from patent publication US20250073311A1, “DOSAGE REGIME” (ZEALAND PHARMA A/S, priority 2021, published 2025).

Test [1] concerns the target T1, human GLP-2 receptor (hGLP2-R) (human, UniProt O95838).
T1 sequence: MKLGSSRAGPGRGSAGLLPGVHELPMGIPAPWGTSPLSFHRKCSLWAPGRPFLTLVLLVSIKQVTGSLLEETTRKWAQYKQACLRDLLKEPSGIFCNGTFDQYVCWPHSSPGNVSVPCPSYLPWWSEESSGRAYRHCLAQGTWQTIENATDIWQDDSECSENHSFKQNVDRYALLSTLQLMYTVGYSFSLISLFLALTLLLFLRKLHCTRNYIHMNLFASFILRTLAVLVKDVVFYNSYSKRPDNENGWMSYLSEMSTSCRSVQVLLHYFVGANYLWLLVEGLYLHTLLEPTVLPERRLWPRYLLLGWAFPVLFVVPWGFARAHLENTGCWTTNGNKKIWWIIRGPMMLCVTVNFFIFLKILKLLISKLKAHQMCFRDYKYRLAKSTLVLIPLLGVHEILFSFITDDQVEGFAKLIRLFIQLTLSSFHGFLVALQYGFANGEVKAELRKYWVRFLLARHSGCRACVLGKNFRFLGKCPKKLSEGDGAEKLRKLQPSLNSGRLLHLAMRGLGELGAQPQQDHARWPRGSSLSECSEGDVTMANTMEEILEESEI

Test [2] concerns the target human glucagon-like peptide 1 receptor (GLP-1R) (human) (UniProt P43220).
The target in test [3] is T2, human GLP-1 receptor (Homo sapiens, UniProt P43220).
T2 construct: expressed in transfected cells
The experiment in a line: GLP-1 receptor potency assay (cAMP AlphaScreen). In kind it is cell-based. The note with it: HEK293 cells expressing human GLP-1R, cAMP response.
Source text: The cDNA encoding the human glucagon-like peptide 1 receptor (GLP-1R) (primary accession number P43220) was cloned from the cDNA BC112126(MGC:138331/IMAGE:8327594). The DNA encoding the GLP-1-R was amplified by PCR using primers encoding terminal restriction sites for subcloning. The 5′-end primers additionally encoded a near Kozak consensus sequence to ensure efficient translation. The fidelity of the DNA encoding the GLP-1-R was confirmed by DNA sequencing. The PCR products encoding the GLP-1-R were subcloned into a mammalian expression vector containing a neomycin (G418) resistance marker. The mammalian expression vectors encoding the GLP-1-R were transfected into HEK293 cells by a standard calcium phosphate transfection method. 48 hours post- transfection, cells were seeded for limited dilution cloning and selected with 1 mg/ml G418 in the culture medium. Following 3 weeks in G418 selection clones were picked and tested in a functional GLP-1 receptor potency assay as described below. One clone was selected for use in compound profiling.
GLP-1R and GLP-2 receptor potency assays.
The cAMP AlphaScreen® assay from Perkin Elmer was used to quantitate the cAMP response to activation of the GLP1 and GLP2 receptor, respectively. […]

Test [4] has as its target T3, human GLP-2 receptor (Homo sapiens, UniProt O95838, D470N).
T3 sequence (O95838 1-553 D470N): T1 sequence
The experiment in a line: GLP-2 receptor potency assay (cAMP AlphaScreen). In kind it is cell-based. Particulars: HEK293 cells expressing human GLP-2R, cAMP response; N/A = no detectable activity. The text has this: The hGLP2-R was purchased from MRC-geneservice, Babraham, Cambridge as an Image clone: 5363415 (11924-117). For subcloning into a mammalian expression vector, primers for subcloning were obtained from DNA-Technology, Risskov, Denmark. The 5′ and 3′ primers used for the PCR reaction include terminal restriction sites for cloning and the context of the 5′ primer is modified to a Kozak consensus without changing the sequence of the product encoded by the ORF. A standard PCR reaction was run using Image clone 5363415 (11924-117) as a template with the above mentioned primers and Polymerase Herculase II Fusion in a total vol. of 50 μl. The generated PCR product was purified using GFX PCR and Gel band purification kit, digested with restriction enzymes and cloned into the mammalian expression vector using Rapid DNA Ligation Kit. Ligation reaction was transformed to XL10 Gold Ultracompetent cells and colonies were picked for DNA production using Endofree Plasmid maxi kit. Subsequent sequence analysis was conducted by MWG Eurofins, Germany.
HEK293 cells were transfected using the Lipofectamine PLUS transfection method. The day before transfection, HEK293 cells were seeded in two T75 flasks at a density of 2×10^6 cells/T75 flask in cell culturing medium without antibiotics. […] Following 4 weeks in G418 selection, clones were picked and tested in a functional GLP-2 receptor potency assay as described below.
Data from test compounds eliciting an increase in the intracellular level of cAMP were normalized relative to the positive and negative control (vehicle) to calculate the EC50 and maximal response from the concentration response curve.

T2 sequence (P43220 24-463): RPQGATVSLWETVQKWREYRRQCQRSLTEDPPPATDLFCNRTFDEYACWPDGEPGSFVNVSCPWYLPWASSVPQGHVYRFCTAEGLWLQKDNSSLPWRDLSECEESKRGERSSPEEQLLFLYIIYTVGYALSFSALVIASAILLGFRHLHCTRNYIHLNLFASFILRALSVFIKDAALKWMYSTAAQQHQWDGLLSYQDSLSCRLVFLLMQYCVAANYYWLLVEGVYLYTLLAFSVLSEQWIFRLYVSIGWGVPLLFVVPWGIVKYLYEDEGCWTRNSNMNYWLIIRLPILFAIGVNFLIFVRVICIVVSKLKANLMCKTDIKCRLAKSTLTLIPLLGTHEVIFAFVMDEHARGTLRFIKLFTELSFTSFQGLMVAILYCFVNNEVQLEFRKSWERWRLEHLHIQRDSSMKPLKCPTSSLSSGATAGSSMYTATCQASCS

For the compound “Teduglutide (from UniProt P01275) (peptide)”, in test [1], the EC50 GLP-2 (nM), cAMP AlphaScreen is 0.027 nM. The compound further had an EC50 GLP-1 (nM), cAMP AlphaScreen in test [2] of 39 nM.
As to `CC[C@H](C)[C@H](NC(=O)[C@H](Cc1ccccc1)NC(=O)[C@H](CC(=O)O)NC(=O)[C@H](CCCNC(=N)N)NC(=O)[C@H](C)NC(=O)[C@H](C)NC(=O)[C@H](CCCCNC(=O)COCCOCCNC(=O)COCCOCCNC(=O)[C@H](CCCCN)NC(=O)[C@H](CCC(=O)O)NC(=O)[C@H](CCCCN)NC(=O)CC[C@H](NC(=O)CCCCCCCCCCCCCCCCCCC(=O)O)C(=O)O)NC(=O)[C@H](C)NC(=O)[C@H](CC(=O)O)NC(=O)[C@H](CC(C)C)NC(=O)[C@@H](NC(=O)[C@@H](NC(=O)[C@H](C)NC(=O)[C@H](CC(C)C)NC(=O)[C@H](CCC(=O)O)NC(=O)[C@H](CO)NC(=O)[C@@H](NC(=O)[C@H](Cc1ccccc1)NC(=O)[C@H](CO)NC(=O)CNC(=O)[C@H](CCC(=O)O)NC(=O)C(C)(C)NC(=O)[C@@H](N)Cc1c[nH]cn1)[C@@H](C)O)[C@@H](C)O)[C@@H](C)CC)C(=O)N[C@@H](C)C(=O)N[C@@H](Cc1c[nH]c2ccccc12)C(=O)N[C@@H](CC(C)C)C(=O)N[C@H](C(=O)N[C@@H](CCC(=O)O)C(=O)N[C@@H](Cc1c[nH]cn1)C(=O)N[C@@H](CCCCN)C(=O)N[C@H](C(=O)N[C@H](C(=O)N[C@@H](CC(=O)O)C(=O)O)[C@@H](C)O)[C@@H](C)CC)[C@@H](C)CC` [Compound 63] (H-H[Aib]EGSFTSELATILDAK([AEEA-AEEA-Lys-Glu-Lys-γGlu-C20 diacid])AARDFIAWLIEHKITD-OH), the EC50 in test [3] worked out at 0.31 nM; in test [4], 0.17 nM.
Take `CC[C@H](C)[C@H](NC(=O)[C@H](Cc1ccccc1)NC(=O)[C@H](CC(=O)O)NC(=O)[C@H](CCCCNC(=O)COCCOCCNC(=O)[C@H](CCCCN)NC(=O)[C@H](CCC(=O)O)NC(=O)[C@H](CCCCN)NC(=O)CC[C@H](NC(=O)CCCCCCCCCCCCCCCCCCC(=O)O)C(=O)O)NC(=O)[C@H](C)NC(=O)[C@H](C)NC(=O)[C@H](CCC(N)=O)NC(=O)[C@H](CCC(=O)O)NC(=O)[C@H](CC(=O)O)NC(=O)[C@H](CC(C)C)NC(=O)[C@@H](NC(=O)[C@@H](NC(=O)[C@H](C)NC(=O)[C@H](CC(C)C)NC(=O)[C@H](CCC(=O)O)NC(=O)[C@H](CO)NC(=O)[C@@H](NC(=O)[C@H](Cc1ccccc1)NC(=O)[C@H](CO)NC(=O)CNC(=O)[C@H](CCC(=O)O)NC(=O)C(C)(C)NC(=O)[C@@H](N)Cc1c[nH]cn1)[C@@H](C)O)[C@@H](C)O)[C@@H](C)CC)C(=O)N[C@@H](C)C(=O)N[C@@H](Cc1c[nH]c2ccccc12)C(=O)N[C@@H](CC(C)C)C(=O)N[C@H](C(=O)N[C@@H](CCC(=O)O)C(=O)N[C@@H](Cc1c[nH]cn1)C(=O)N[C@@H](CCCCN)C(=O)N[C@H](C(=O)N[C@H](C(=O)N[C@@H](CC(=O)O)C(=O)O)[C@@H](C)O)[C@@H](C)CC)[C@@H](C)CC` [Compound 64] (H-H[Aib]EGSFTSELATILDEQAAK([AEEA-Lys-Glu-Lys-γGlu-C20 diacid])DFIAWLIEHKITD-OH): the EC50 was 0.49 nM in test [3] and 0.2 nM in test [4].
